Columns and labels:
[1] = Inhibition of TOR signaling in wild-type Saccharomyces cerevisiae transformed with overexpression plasmids assessed as decreased TUL1 gene expression by microarray
[2] = Inhibition of TOR signaling in wild-type Saccharomyces cerevisiae transformed with overexpression plasmids assessed as increased YFR044C gene expression by microarray
[3] = Inhibition of TOR signaling in wild-type Saccharomyces cerevisiae transformed with overexpression plasmids assessed as increased GPM3 gene expression by microarray
[4] = Inhibition of TOR signaling in wild-type Saccharomyces cerevisiae transformed with overexpression plasmids assessed as increased CDC54 gene expression by microarray
[5] = Inhibition of TOR signaling in wild-type Saccharomyces cerevisiae transformed with overexpression plasmids assessed as decreased YMR034C gene expression by microarray
[6] = Inhibition of TOR signaling in wild-type Saccharomyces cerevisiae transformed with overexpression plasmids assessed as decreased MSB3 gene expression by microarray
[7] = Inhibition of TOR signaling in wild-type Saccharomyces cerevisiae transformed with overexpression plasmids assessed as increased NOP7 gene expression by microarray
[8] = Inhibition of TOR signaling in wild-type Saccharomyces cerevisiae transformed with overexpression plasmids assessed as decreased AZR1 gene expression by microarray
[9] = Inhibition of TOR signaling in wild-type Saccharomyces cerevisiae transformed with overexpression plasmids assessed as increased NAM7 gene expression by microarray
Saccharomyces cerevisiae [10] = experiment: Decrease of FET4 gene expression in wild-type Saccharomyces cerevisiae transformed with overexpression plasmids by microarray; assay type: functional
[11] = Inhibition of TOR signaling in wild-type Saccharomyces cerevisiae transformed with overexpression plasmids assessed as increased YOR042W gene expression by microarray
[12] = Inhibition of TOR signaling in wild-type Saccharomyces cerevisiae transformed with overexpression plasmids assessed as increased YOL157C gene expression by microarray
[13] = Inhibition of TOR signaling in wild-type Saccharomyces cerevisiae transformed with overexpression plasmids assessed as increased SEC14 gene expression by microarray
[14] = Inhibition of TOR signaling in wild-type Saccharomyces cerevisiae transformed with overexpression plasmids assessed as increased IML2 gene expression by microarray
Saccharomyces cerevisiae [15] = experiment: Decrease of SGN1 gene expression in wild-type Saccharomyces cerevisiae transformed with overexpression plasmids by microarray; assay type: functional
Saccharomyces cerevisiae [16] = experiment: Decrease of RIM11 gene expression in wild-type Saccharomyces cerevisiae transformed with overexpression plasmids by microarray; assay type: functional
[17] = Inhibition of TOR signaling in wild-type Saccharomyces cerevisiae transformed with overexpression plasmids assessed as increased FBP1 gene expression by microarray
[18] = Inhibition of TOR signaling in wild-type Saccharomyces cerevisiae transformed with overexpression plasmids assessed as decreased YPL264C gene expression by microarray
[19] = Inhibition of TOR signaling in wild-type Saccharomyces cerevisiae transformed with overexpression plasmids assessed as decreased REH1 gene expression by microarray
[20] = Inhibition of TOR signaling in wild-type Saccharomyces cerevisiae transformed with overexpression plasmids assessed as decreased APL4 gene expression by microarray
[21] = Inhibition of TOR signaling in wild-type Saccharomyces cerevisiae transformed with overexpression plasmids assessed as decreased YCL036W gene expression by microarray
[22] = Inhibition of TOR signaling in wild-type Saccharomyces cerevisiae transformed with overexpression plasmids assessed as decreased HSD1 gene expression by microarray
[23] = Inhibition of TOR signaling in wild-type Saccharomyces cerevisiae transformed with overexpression plasmids assessed as increased YDL063C gene expression by microarray
[24] = Inhibition of TOR signaling in wild-type Saccharomyces cerevisiae transformed with overexpression plasmids assessed as increased BRE1 gene expression by microarray
[25] = Inhibition of TOR signaling in wild-type Saccharomyces cerevisiae transformed with overexpression plasmids assessed as increased HSP104 gene expression by microarray
[26] = Inhibition of TOR signaling in wild-type Saccharomyces cerevisiae transformed with overexpression plasmids assessed as increased YOR220W gene expression by microarray
[27] = Inhibition of TOR signaling in wild-type Saccharomyces cerevisiae transformed with overexpression plasmids assessed as decreased EFR3 gene expression by microarray
Saccharomyces cerevisiae [28] = experiment: Decrease of YDR222W gene expression in wild-type Saccharomyces cerevisiae transformed with overexpression plasmids by microarray; assay type: functional
[29] = Inhibition of TOR signaling in wild-type Saccharomyces cerevisiae transformed with overexpression plasmids assessed as decreased VTI1 gene expression by microarray
[30] = Inhibition of TOR signaling in wild-type Saccharomyces cerevisiae transformed with overexpression plasmids assessed as decreased YDL186W gene expression by microarray
Saccharomyces cerevisiae [31] = experiment: Increase of HMI1 gene expression in wild-type Saccharomyces cerevisiae transformed with overexpression plasmids by microarray; assay type: functional
[32] = Inhibition of TOR signaling in wild-type Saccharomyces cerevisiae transformed with overexpression plasmids assessed as increased YEL070W gene expression by microarray
[33] = Inhibition of TOR signaling in wild-type Saccharomyces cerevisiae transformed with overexpression plasmids assessed as increased DSL1 gene expression by microarray
[34] = Inhibition of TOR signaling in wild-type Saccharomyces cerevisiae transformed with overexpression plasmids assessed as increased NCL1 gene expression by microarray
[35] = Inhibition of TOR signaling in wild-type Saccharomyces cerevisiae transformed with overexpression plasmids assessed as increased PDR17 gene expression by microarray
[36] = Inhibition of TOR signaling in wild-type Saccharomyces cerevisiae transformed with overexpression plasmids assessed as decreased CDC16 gene expression by microarray
[37] = Inhibition of TOR signaling in wild-type Saccharomyces cerevisiae transformed with overexpression plasmids assessed as increased ALD6 gene expression by microarray
[38] = Inhibition of TOR signaling in wild-type Saccharomyces cerevisiae transformed with overexpression plasmids assessed as increased SAS10 gene expression by microarray
[39] = Inhibition of TOR signaling in wild-type Saccharomyces cerevisiae transformed with overexpression plasmids assessed as increased UTP8 gene expression by microarray
[40] = Inhibition of TOR signaling in wild-type Saccharomyces cerevisiae transformed with overexpression plasmids assessed as decreased RTT101 gene expression by microarray
[41] = Inhibition of TOR signaling in wild-type Saccharomyces cerevisiae transformed with overexpression plasmids assessed as increased URA5 gene expression by microarray
[42] = Inhibition of TOR signaling in wild-type Saccharomyces cerevisiae transformed with overexpression plasmids assessed as increased WHI4 gene expression by microarray
[43] = Inhibition of TOR signaling in wild-type Saccharomyces cerevisiae transformed with overexpression plasmids assessed as decreased YKL174C gene expression by microarray
[44] = Inhibition of TOR signaling in wild-type Saccharomyces cerevisiae transformed with overexpression plasmids assessed as decreased SUE1 gene expression by microarray
[45] = Inhibition of TOR signaling in wild-type Saccharomyces cerevisiae transformed with overexpression plasmids assessed as decreased TPO4 gene expression by microarray

`CO[C@H]1C[C@@H]2CC[C@@H](C)[C@@](O)(O2)C(=O)C(=O)N2CCCC[C@H]2C(=O)O[C@H]([C@H](C)C[C@@H]2CC[C@@H](O)[C@H](OC)C2)CC(=O)[C@H](C)/C=C(\C)[C@@H](O)[C@@H](OC)C(=O)[C@H](C)C[C@H](C)/C=C/C=C/C=C/1C` [SIROLIMUS] gave a fold change (FC) [1] of -3.7, a fold change (FC) [2] of 4.7 and a fold change (FC) [3] of 2.5. It also gave a fold change (FC) [4] of 4.5, a fold change (FC) [5] of -4.4 and a fold change (FC) [6] of -2. It also gave a fold change (FC) [7] of 2.4, a fold change (FC) [8] of -3.1 and a fold change (FC) [9] of 6.4. For the same compound, the “fold change (FC)” value (Saccharomyces cerevisiae [10]) was -5.1, the fold change (FC) [11] was 2.7 and the fold change (FC) [12] was 7.1. For the same compound, the fold change (FC) [13] was 4.1, the fold change (FC) [14] was 24.4 and the “fold change (FC)” value (Saccharomyces cerevisiae [15]) was -2.1. For the same compound, the “fold change (FC)” value (Saccharomyces cerevisiae [16]) was 2.9, the fold change (FC) [17] was 2.1 and the fold change (FC) [18] was -3.2. For the same compound, the fold change (FC) [19] was -2.2, the fold change (FC) [20] was -2.7 and the fold change (FC) [21] was -2.1. The fold change (FC) [22] was -4.5, the fold change (FC) [23] was 2.5 and the fold change (FC) [24] was 4.4. The fold change (FC) [25] was 6.3, the fold change (FC) [26] was 3.2 and the fold change (FC) [27] was -3.1. For the same compound, the “fold change (FC)” value (Saccharomyces cerevisiae [28]) was 5, the fold change (FC) [29] was -2.8 and the fold change (FC) [30] was -3.3. The “fold change (FC)” value (Saccharomyces cerevisiae [31]) was -2.3, the fold change (FC) [32] was 3 and the fold change (FC) [33] was 2.4. The fold change (FC) [34] was 7.4, the fold change (FC) [35] was 2.9 and the fold change (FC) [36] was -2.3. For the same compound, the fold change (FC) [37] was 3, the fold change (FC) [38] was 2.3 and the fold change (FC) [39] was 2.6. It also gave a fold change (FC) [40] of -3.3, a fold change (FC) [41] of 2.2 and a fold change (FC) [42] of 3.4. For the same compound, the fold change (FC) [43] was -5.6, the fold change (FC) [44] was -2 and the fold change (FC) [45] was -5.8.

Source: ChEMBL document CHEMBL1250443, “Microarray-based method for monitoring yeast overexpression strains reveals small-molecule targets in TOR pathway” (Nat Chem Biol, 2006)
